Experiment [1] has as its system Inflammatory Metabolites (PGE2, LTB4) and Inflammatory Metabolite Marker (5-HETE). The experiment in a line: Inflammatory Metabolites and Inflammatory Metabolite Markers in the aggregate, PMA/A23187-stimulated neutrophils, LC-MS/MS. The settings on record: for net decrease in cellular concentration of Inflammatory Metabolites and Inflammatory Metabolite Markers vs control: human neutrophils pre-treated 24 h, then PMA/A23187. It counts as cell-based, human. The protocol:
(§1) Ingredients were tested to assess the ability to promote Pro-Resolution Pathway Stimulators in human neutrophils. The following Inflammatory Metabolites were measured:
(§2) PGE2 and LTB4. The Inflammatory Metabolite Marker, 5-HETE, was measured. Also measured were the Pro-Resolving Lipid Mediator Markers 15-HETE, 12-HETE, 14-HDOHE, 18-HEPE, and 17-HDOHE. PGE2, LTB4, and 5-HETE are indicators of inflammation. Increases in cellular secretion of PGE2, LTB4, or 5-HETE are seen in response to inflammation precipitating conditions. Active ingredients that cause a reduction in cellular concentration of PGE2, LTB4, or 5-HETE are anti-inflammatory in nature. Cellular secretion of Pro-Resolving Lipid Mediators occurs in the inflammation resolution phase. Active ingredients that stimulate cellular secretion of Pro-Resolving Lipid Mediators (as measured by measuring Pro-Resolving Lipid Mediator Markers) help to promote resolution of inflammation.
(§3) Then, the inflammatory response was initiated by adding an inflammation precipitating ingredient, in particular PMA/[…] which is a mixture of 5-(methylamino)-2-({(2R,3R,6S,8S,9R,11R)-3,9,11-trimethyl-8-[(1S)-1-methyl-2-oxo-2-(1H-pyrrol-2-yl)ethyl]-1,7-dioxaspiro[5.5]undec-2-yl}methyl)-1,3-benzoxazole-4-carboxylic acid and PMA (phorbol myristate acetate), at a concentration of 0.05 μm and 1 μm respectively to each well. After one hour the supernatants were collected and stored at −80° C. until assayed.
(§4) Cell supernatants were assayed for Inflammatory Metabolites (PGE2, LBT4), Inflammatory Metabolite Markers (5-HETE), and Pro-Resolving Lipid Mediator Markers 15-HETE, 12-HETE, 14-HDOHE, 18-HEPE, and 17-HDOHE. More specifically, analysis was performed by extraction using an Oasis HLB 96-well plate (Waters) according to manufacturer's directions.
(§5) Suitable Pro-Resolving Activators are ingredients that show an increase in cellular concentration of Pro-Resolving Lipid Mediator Markers 15-HETE, 12-HETE, 14-HDOHE, 18-HEPE, and 17-HDOHE alone or in combination, when cells exposed to an inflammation precipitating condition either before or after exposure to the active.

The test system of experiment [2] is Pro-Resolving Lipid Mediator Markers 15-HETE, 12-HETE, 14-HDOHE, 18-HEPE, and 17-HDOHE. The experiment in a line: Pro-Resolving Lipid Mediator Markers in the aggregate, PMA/A23187-stimulated neutrophils, LC-MS/MS. It counts as cell-based, human. The method, then:
as §1, §2, §3, §4, §5

With `Oc1ccc(C=Cc2cc(O)cc(O)c2)cc1` [resveratrol], the “decrease in Inflammatory Metabolites and Markers in the aggregate vs control” value in experiment [1] (0.1 ug/ml) is listed as 45%; in experiment [1] (1 ug/ml) it was 59%; in experiment [1] (10 ug/ml), 106%. Moreover, the “% change of Pro-Resolving Lipid Mediator Markers in the aggregate compared to control” value in experiment [2] (0.1 ug/ml) is listed as −27%; in experiment [2] (1 ug/ml), −16%; in experiment [2] (10 ug/ml), −10%.
For the compound `O=C(O)c1ccccc1O` [salicylic acid], the “net decrease in cellular concentration of Inflammatory Metabolites and Inflammatory Metabolite Markers vs control” value is recorded as 29% in experiment [1] (0.33 μg/ml, aggregate of PGE2, LTB4, 5-HETE); 58% in experiment [1] (3.3 μg/ml, aggregate); 46% in experiment [1] (33 μg/ml, aggregate). In addition, in experiment [2] (0.33 ug/ml), the “change in cellular concentration of Pro-Resolving Lipid Mediators vs control” value is reported as “small increase”. In addition, the “change in cellular concentration of all Pro-Resolving Lipid Mediator Markers in the aggregate vs control” value in experiment [2] (3.3 μg/ml) and in experiment [2] (33 μg/ml) was “decreased” in each case.
Consider resveratrol salicylate, for which the “decrease in Inflammatory Metabolites and Inflammation Metabolite Markers in the aggregate vs control” value is 87% in experiment [1] (0.43 ug/ml), 163% in experiment [1] (4.3 ug/ml) and 257% in experiment [1] (43 ug/ml). Moreover, the “increase in cellular concentration of Pro-Resolving Lipid Mediator Markers in the aggregate” value in experiment [2] (0.43 ug/ml) was “not being as effective”; in experiment [2] (4.3 ug/ml) it was 4%; in experiment [2] (43 ug/ml), 37%.

The record behind these values is US10010492B2, “Methods and compositions for treating skin to resolve inflammation and screening for actives that stimulate pro-resolution pathways” (ELC Management LLC, priority 2015, dated 2018).
